For 69 compounds, IC50 growth inhibition results are on record in the supplement of paper PMC8837787.

Molecules are shown by their SMILES.

The test system of this experiment is Saccharomyces cerevisiae ABC16-Green Monster. The settings on record: 18 h; 30 °C; YPD. As to the method:
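Growth inhibition of the drug-sensitive S. cerevisiae ABC16-Green Monster strain (16 ABC transporters deleted) in YPD at 30 °C for 18 h. […] dilution series […] in biological replicates; IC50 from OD600 (18 h minus 0 h) fitted by variable-slope nonlinear regression in GraphPad Prism. Library compounds were first screened at 150 µM, and only those with at least 70% inhibition went to dose-response; the rest are marked inactive.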

In the case of `NC(=O)[C@@H](CC1CC1)[C@@H](CCC(F)(F)F)C(=O)N[C@H]1N=C(c2ccccc2)c2cccc(F)c2NC1=O`, the IC50 growth inhibition is 2.06 µM. As for `Cc1c(N)nc(C(CC(N)=O)NCC(N)C(N)=O)nc1C(=O)NC(C(=O)NC(C)C(O)C(C)C(=O)NC(C(=O)NCCc1nc(-c2nc(C(=O)NCCC[S+](C)C)cs2)cs1)C(C)O)C(OC1OC(CO)C(O)C(O)C1OC1OC(CO)C(O)C(OC(N)=O)C1O)c1cnc[nH]1` (centres undefined) [Bleomycin (JP1)], the IC50 growth inhibition was over 75 µM. To `CCC(C)n1ncn(-c2ccc(N3CCN(c4ccc(OCC5COC(Cn6cncn6)(c6ccc(Cl)cc6Cl)O5)cc4)CC3)cc2)c1=O` (centres undefined) [Itraconazole] belongs 7.53 µM.

For `c1ccc(CSc2scnc2[P+](c2ccccc2)(c2ccccc2)c2ccccc2)cc1` [GNF-Pf-238], the IC50 growth inhibition was determined as 4.06 µM. To `Cc1cc(=O)[nH]c(-n2nc(C3CC3)cc2NC(=O)C2(c3ccc(Cl)cc3)CCCC2)n1` [CBR668] belongs 1.93 µM; to `Brc1ccc(Nc2nc3ccccc3nc2Nc2ccc(Br)cc2)cc1`, 2.31 µM; to `O=CN(O)CCCP(=O)(O)O` [Fosmidomycin], over 75 µM.

As for `CC1N(C)c2ccc(/C=C/c3cc[n+](C)cc3)cc2C1(C)C` (centres undefined), the IC50 growth inhibition turned out to be 55.2 µM. Compound `Cc1cc(Nc2cccc(F)c2)nc(NCc2ccccc2)n1` showed an IC50 growth inhibition of 21.9 µM. To `CN(Cc1nc(N)c2c3c(sc2n1)CCCC3)Cc1cccs1` belongs 107 µM; to `CCCc1cc(N2CCN(C)CC2)n2ncc(-c3ccccc3)c2n1`, 47 µM.

For `COc1ccc(-c2nnc3ccc(-c4cccc(C(C)C)c4)cn23)cc1OC`, the IC50 growth inhibition worked out at 52.3 µM. To `CCCCCCC(O)(c1ccc(F)cc1)C(CN1CCOCC1)c1ccccc1` (centres undefined) belongs 17.3 µM.

`OCc1ccc(-c2cncc(Nc3cccc(Cl)c3)c2)cc1` registered an IC50 growth inhibition of 6.31 µM. The value for `CC1C=CC=CC=CC=CC=CC=CC=CC(OC2OC(C)C(O)C(N)C2O)CC2OC(O)(CC(O)CC(O)C(O)CCC(O)CC(O)CC(=O)OC(C)C(C)C1O)CC(O)C2C(=O)O` (centres undefined) [Amphotericin B] was 63.3 µM; that for `CCCCCCCCCCCCCCCCCCOCC(COP(=O)([O-])OCC[N+](C)(C)C)OC` (centres undefined) [Edelfosine] was 29.1 µM; that for `Cc1c(C)n(CCCN(C)C)c2ncn3nc(COc4ccccc4)nc3c12` was 39.6 µM.

In the case of `CC(Oc1ccc(Cl)cc1Cl)c1nc(-c2ccc(NC(=O)c3cccs3)cc2)no1` (centres undefined) [GNF-Pf-2823], the IC50 growth inhibition was 3.9 µM. The value for `Cc1ccc(NC(=O)c2ccc(CN3CCN(C)CC3)cc2)cc1Nc1nccc(-c2cccnc2)n1` [Imatinib] was over 75 µM; that for `C[C@@H]1COCCN1c1cc(C2(S(C)(=O)=O)CC2)nc(-c2cccc3[nH]ccc23)n1` [AZ-20] was over 75 µM. Turning to `COc1ccc(CN2CCN(C(c3ccc(F)cc3)c3ccc(F)cc3)CC2)c(OC)c1OC` [Lomerizine], the IC50 growth inhibition was 14.2 µM. The value for `COC1=CC(C)=CC(C)C(O)C(C)CC(C)=CC=CC(OC)C(C(C)C(O)C(C)C2(O)CC(O)C(C)C(C(C)C)O2)OC1=O` (centres undefined) [Bafilomycin A1] was 0.164 µM; that for `COCCNCC(O)Cn1c2ccc(Cl)cc2c2cc(Cl)ccc21` (centres undefined) was 11 µM; that for `CNC(=O)c1ccccc1Nc1nc(Nc2ccc3c(c2OC)CCC[C@H](N2CCN(CCO)CC2)C3)ncc1Cl` was 37.7 µM.

As to `OCCN1CCN(CCCN2c3ccccc3Sc3ccc(C(F)(F)F)cc32)CC1` [Fluphenazine], the IC50 growth inhibition was 30.1 µM.

In the case of `O=C(Nc1cccc(C(F)(F)F)c1)Nc1ncc([N+](=O)[O-])s1`, the IC50 growth inhibition amounted to 52.4 µM.

For `Cc1ccc2c(c1C)NC(=O)C21NN=C(c2ccccc2)S1` (centres undefined), the IC50 growth inhibition was 10.2 µM.

In turn, `Nc1ccn(C2OC(CO)C(O)C2(F)F)c(=O)n1` (centres undefined) [Gemcitabine] had an IC50 growth inhibition of over 75 µM.

`Cc1nn2c(=O)cc(-c3ccccc3)[nH]c2c1-c1ccc(F)cc1` had an IC50 growth inhibition of 39 µM. To `FC(F)Sc1ccc2nc3ccccc3c(N3CCOCC3)c2c1` belongs 30 µM; to `CC(=O)OC1C(=O)C2(C)C(O)CC3OCC3(OC(C)=O)C2C(OC(=O)c2ccccc2)C2(O)CC(OC(=O)C(O)C(NC(=O)c3ccccc3)c3ccccc3)C(C)=C1C2(C)C` (centres undefined) [Paclitaxel], over 75 µM; to `O=C1C=CC(=O)N1c1ccc(C2CCCCC2)cc1`, 1.69 µM. To `N=C(N)Nc1ccc(-c2ccc(-c3ccc(NC(=N)N)cc3Cl)o2)c(Cl)c1` belongs 44.5 µM. To `Cc1nc(C(=N)NOC(=O)c2c(-c3c(Cl)cccc3Cl)noc2C)cs1` belongs 21.2 µM; to `C=CCn1c(C)cc(C(=O)CSc2nc3ccccc3o2)c1C`, 11.2 µM; to `CCC(=C(CC)c1ccc(O)cc1)c1ccc(O)cc1` [Diethylstilbestrol], 5.86 µM. In turn, `N#Cc1c(N2CCCC2)nn(C(=O)Nc2ccc(Cl)c(Cl)c2)c1N` gave an IC50 growth inhibition of 4.53 µM. `CCC(C(C)O)n1ncn(-c2ccc(N3CCN(c4ccc(OCC5COC(Cn6cncn6)(c6ccc(F)cc6F)C5)cc4)CC3)cc2)c1=O` (centres undefined) [Posaconazole] registered an IC50 growth inhibition of 0.71 µM. To `O=C(Nc1cccc(C(F)(F)F)c1)c1cc(Cl)ccc1O` belongs 4.18 µM; to `O=C(Nc1ccccc1)c1ccc(-c2cc3ccncc3cc2OC2CCNCC2)s1`, 44.8 µM. `CN1CC(C(=O)NC2(C)OC3(O)C4CCCN4C(=O)C(Cc4ccccc4)N3C2=O)CC2c3cccc4[nH]cc(c34)CC21` (centres undefined) [Dihydroergotamine] came in with an IC50 growth inhibition of over 75 µM. To `COC1=CC(=O)CC(C)C12Oc1c(Cl)c(OC)cc(OC)c1C2=O` (centres undefined) [Griseofulvin] belongs over 75 µM.

`Cc1ccc(C2Sc3ccccc3N=C3C2=C(O)c2ccccc23)cc1` (centres undefined) [GNF-Pf-5468] had an IC50 growth inhibition of 4.95 µM.

As for `CC1(C)C=Cc2cc(C(=N)NOC(=O)c3ccccc3)ccc2O1`, the IC50 growth inhibition worked out at 4.33 µM. The value for `Cc1ccc(CNc2ncnc3sccc23)cc1` was 13.4 µM. To `O=C(Nc1nc(-c2ccccn2)cs1)c1cncn1-c1ccccc1` belongs 26.2 µM; to `N=C(N)c1ccc(OCCCCCOc2ccc(C(=N)N)cc2)cc1` [Pentamidine], 85.9 µM; to `CC1=NN(c2nc3ccccc3s2)C(=O)C1Cc1cccc2ccccc12` (centres undefined), 40.7 µM.

Turning to `Cc1cc(N(C)Cc2ccccc2Br)nc(N)n1`, the IC50 growth inhibition was 52.6 µM. The value for `COc1cccc(-n2nnnc2S(=O)(=O)Cc2ccccc2)c1` was 16.1 µM.

`CC(C)(C)c1ccc(NC(=O)c2ccc[nH]c2=S)cc1`: the IC50 growth inhibition turned out to be 25.4 µM. As for `CCC(=C(c1ccc(O)cc1)c1ccc(OCCNC)cc1)c1ccccc1` [Endoxifen], the IC50 growth inhibition was found to be 8.3 µM. To `COc1cc(N2CCC(N3CCN(C)CC3)CC2)ccc1Nc1ncc(Cl)c(Nc2ccccc2P(C)(C)=O)n1` [Brigatinib] belongs over 75 µM. Compound `CN(Cc1ccc(Cl)s1)C(=O)Cn1ncc(Br)c(Br)c1=O` yielded an IC50 growth inhibition of 24.2 µM.

As for `COc1ccc(-c2cnc3ccc(N4CCCC4)nn23)cc1OC`, the IC50 growth inhibition was determined as 68.5 µM. To `Cc1c(C)n(CCCN(C)C)c2ncn3nc(-c4ccc(N(C)C)cc4)nc3c12` belongs 42.3 µM; to `Nc1nc(F)nc2c1ncn2C1OC(CO)C(O)C1O` (centres undefined) [Fludarabine], over 75 µM; to `C(#Cc1ccc(-c2cc[nH]n2)s1)c1ccccc1`, 18.9 µM. The value for `c1ccc(Oc2ccc(-c3cc(C4CCOCC4)[nH]n3)cc2)cc1` was 55.6 µM; that for `Cc1cc(C(=O)Cn2c(CO)nc3ccccc32)c(C)n1-c1ccccc1` was 62.4 µM; that for `FC(F)(F)c1cccc(-c2nc3c(NCc4ccncc4)nccc3[nH]2)c1` was 41.6 µM.

For the compound `CN1CCN(S(=O)(=O)c2ccc(-c3ccc4c(Nc5ncc(Cl)cn5)ccnc4c3)cc2)CC1`, the IC50 growth inhibition is 43.4 µM. Consider `COc1cccc2c1C(=O)c1c(O)c3c(c(O)c1C2=O)CC(O)(C(=O)CO)CC3OC1CC(N)C(O)C(C)O1` (centres undefined) [Doxorubicin], for which the IC50 growth inhibition is 11.2 µM.

With `Oc1c(C(Nc2ccccn2)c2cccc(Cl)c2Cl)ccc2cccnc12` (centres undefined) [GNF-Pf-5250], the IC50 growth inhibition was over 150 µM. To `C=C1CCC(O)CC1=CC=C1CCCC2(C)C1CCC2C(C)CCCC(C)(C)O` (centres undefined) [Calcifediol] belongs over 150 µM. To `CSc1nc2cc(Oc3cccc(Cl)c3Cl)c(Cl)cc2[nH]1` [Triclabendazole] belongs 6.29 µM. The value for `CC(C)c1csc(NC(=O)c2cnn(-c3ccccc3F)c2C(F)(F)F)n1` was 31.3 µM. Regarding `C/C=C/[C@H]1O[C@@](O)([C@@H](C)[C@H](O)[C@H](C)[C@H]2OC(=O)/C(OC)=C\C(C)=C\[C@@H](C)[C@@H](O)[C@@H](CC)[C@@H](O)[C@H](C)C/C(C)=C/C=C/[C@@H]2OC)C[C@@H](O[C@H]2C[C@@H](O)[C@H](OC(=N)O)[C@@H](C)O2)[C@@H]1C` [Concanamycin A], the IC50 growth inhibition stood at 6.1 µM. To `Oc1c(I)cc(I)c2cccnc12` [Iodoquinol] belongs 5.5 µM.
